# Values quoted from earlier work as cited in patent US20180303793A1, “METHODS AND COMPOSITIONS FOR TREATING TRAUMATIC BRAIN INJURY” (SCYTHIAN BIOSCIENCES INC., priority 2015, published 2018).
# Conditions: single agent
smiles,measurement,setting,value
"CCCCCCC(C)(C)c1cc(O)c2c(c1)OC(C)(C)[C@H]1CC=C(CO)C[C@H]21 [dexanabinol, 7-hydroxy-delta6-tetrahydrocannabinol 1,1-dimethylheptyl]",intracranial pressure,one prior study,lowered intracranial pressure
same,gliosis and the subsequent immune cascade,other prior studies,did not inhibit gliosis
